The values that follow come from patent US8686150B2 (Sanofi, priority 2011, dated 2014).

For this test, the target named is T1, human full-length recombinant PKC βII (Homo sapiens, UniProt P05771).
T1 construct: Active human full-length recombinant PKC βII; purchased Invitrogen GmbH, Darmstadt, Germany
The test can be described thus: Determination of PKC βII inhibition (Caliper mobility-shift kinase assay, Fluorescein-RFARKGSLRQKNV peptide substrate). The test is classed as biochemical. The settings on record: example compounds at a final concentration of 1.14 μM (±0.15 μM). In short, it runs like this:
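Full-length PKC βII (30 ng/ml in pre-dilution) with PS/DAG/Ca2+ activators, pH 7.4; fluorescein peptide and ATP at 3 μM and 120 μM before mixing. Reaction ran 60 min at 32 °C, was EDTA-stopped, and was read by mobility shift. % inhibition came from product/(substrate+product) peak heights, tested at 1.14 μM final.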

T1 sequence (P05771 1-673 isoform P05771-2): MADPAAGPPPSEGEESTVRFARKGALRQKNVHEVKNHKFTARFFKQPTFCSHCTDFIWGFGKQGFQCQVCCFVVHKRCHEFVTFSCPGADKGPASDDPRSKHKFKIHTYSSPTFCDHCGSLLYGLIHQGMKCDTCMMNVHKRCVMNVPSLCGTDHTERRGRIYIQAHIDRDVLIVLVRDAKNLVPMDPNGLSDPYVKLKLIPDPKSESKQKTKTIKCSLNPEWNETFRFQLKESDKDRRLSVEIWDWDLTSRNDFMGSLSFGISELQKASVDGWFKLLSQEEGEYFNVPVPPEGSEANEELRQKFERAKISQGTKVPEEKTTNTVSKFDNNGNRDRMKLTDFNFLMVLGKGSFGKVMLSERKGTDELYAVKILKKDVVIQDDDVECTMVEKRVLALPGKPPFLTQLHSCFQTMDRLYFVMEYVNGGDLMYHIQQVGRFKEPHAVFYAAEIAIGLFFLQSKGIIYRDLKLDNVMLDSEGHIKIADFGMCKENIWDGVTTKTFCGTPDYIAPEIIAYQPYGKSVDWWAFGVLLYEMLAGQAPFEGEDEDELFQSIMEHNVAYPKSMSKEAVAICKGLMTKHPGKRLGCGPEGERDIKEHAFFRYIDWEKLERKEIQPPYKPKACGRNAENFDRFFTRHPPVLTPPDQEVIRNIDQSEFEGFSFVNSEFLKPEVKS

A word on the inhibition: it is the share of the control response that was lost under treatment. Take `COC[C@H]1CN(C(=O)c2cc(-c3ccc(O)c(F)c3)nc3[nH]nc(C)c23)CCN1` [Example 298, [6-(3-Fluoro-4-hydroxy-phenyl)-3-methyl-1H-pyrazolo[3,4-b]pyridin-4-yl]-((R)-3-methoxymethyl-piperazin-1-yl)-methanone]: the inhibition at 1.14 µM turned out to be 68%.
On the same count and under the same terms, then `Cc1n[nH]c2nc(-c3ccc(O)c(F)c3)cc(C(=O)NC3CC4(CCNCC4)c4ccccc43)c12` (centres unmarked) [Example 299, 6-(3-Fluoro-4-hydroxy-phenyl)-3-methyl-1H-pyrazolo[3,4-b]pyridine-4-carboxylic acid (2,3-dihydro-spiro[1H-indene-1,4′-piperidin]-3-yl)-amide], with 92%; and `Cc1n[nH]c2nc(-c3ccc(O)c(F)c3)cc(C(=O)N3CCNCC3Cc3ccccc3)c12` (centres unmarked) [Example 300, (2-Benzyl-piperazin-1-yl)-[6-(3-fluoro-4-hydroxy-phenyl)-3-methyl-1H-pyrazolo[3,4-b]pyridin-4-yl]-methanone], with 74%.
As to `Cc1n[nH]c2nc(-c3ccc(O)c(F)c3)cc(C(=O)NC3CC4CCC(C3)N4C)c12` (centres unmarked) [Example 301, 6-(3-Fluoro-4-hydroxy-phenyl)-3-methyl-1H-pyrazolo[3,4-b]pyridine-4-carboxylic acid (8-methyl-8-aza-bicyclo[3.2.1]oct-3-yl)-amide], the inhibition at 1.14 µM is 63%.
On to `Cc1n[nH]c2nc(-c3ccc(O)c(F)c3)cc(C(=O)NC3CNC3)c12` [Example 302, 6-(3-Fluoro-4-hydroxy-phenyl)-3-methyl-1H-pyrazolo[3,4-b]pyridine-4-carboxylic acid azetidin-3-ylamide], for which the inhibition at 1.14 µM stood at 82%.
Consider `Cc1n[nH]c2nc(-c3ccc(O)c(F)c3)cc(C(=O)N3CCNC(C)C3)c12` (centres unmarked) [Example 303, [6-(3-Fluoro-4-hydroxy-phenyl)-3-methyl-1H-pyrazolo[3,4-b]pyridin-4-yl]-(3-methyl-piperazin-1-yl)-methanone], for which the inhibition at 1.14 µM turned out to be 93%.
Take `Cc1n[nH]c2nc(-c3ccc(O)c(F)c3)cc(C(=O)N3CCC(N)CC3)c12` [Example 304, (4-Amino-piperidin-1-yl)-[6-(3-fluoro-4-hydroxy-phenyl)-3-methyl-1H-pyrazolo[3,4-b]pyridin-4-yl]-methanone]: the inhibition at 1.14 µM came to 91%.
On to `Cc1n[nH]c2nc(-c3ccc(O)c(F)c3)cc(C(=O)N[C@@H]3CCCNC3)c12` [Example 305, 6-(3-Fluoro-4-hydroxy-phenyl)-3-methyl-1H-pyrazolo[3,4-b]pyridine-4-carboxylic acid (R)-piperidin-3-ylamide], for which the inhibition at 1.14 µM stood at 83%.
`Cc1n[nH]c2nc(-c3ccc(O)c(F)c3)cc(C(=O)N3C[C@H]4CNC[C@H]4C3)c12` [Example 306, [6-(3-Fluoro-4-hydroxy-phenyl)-3-methyl-1H-pyrazolo[3,4-b]pyridin-4-yl]-(3aR,6aS)-hexahydro-pyrrolo[3,4-c]pyrrol-2-yl-methanone]: the inhibition at 1.14 µM worked out at 76%.
Regarding `Cc1n[nH]c2nc(-c3ccc(O)c(F)c3)cc(C(=O)N3CCC4CNCC43)c12` (centres unmarked) [Example 308, [6-(3-Fluoro-4-hydroxy-phenyl)-3-methyl-1H-pyrazolo[3,4-b]pyridin-4-yl]-(hexahydro-pyrrolo[3,4-b]pyrrol-1-yl)-methanone], the inhibition at 1.14 µM turned out to be 60%.
On to `Cc1n[nH]c2nc(-c3ccc(O)c(F)c3)cc(C(=O)N[C@H]3C[C@H](N)C3)c12` [Example 309, 6-(3-Fluoro-4-hydroxy-phenyl)-3-methyl-1H-pyrazolo[3,4-b]pyridine-4-carboxylic acid (trans-3-amino-cyclobutyl)-amide], for which the inhibition at 1.14 µM came to 71%.
Take `Cc1n[nH]c2nc(-c3ccc(O)c(F)c3)cc(C(=O)N3C[C@H]4CC[C@@H](C3)C4N)c12` (some centres unmarked) [Example 310, (8-Amino-3-aza-bicyclo[3.2.1]oct-3-yl)-[6-(3-fluoro-4-hydroxy-phenyl)-3-methyl-1H-pyrazolo[3,4-b]pyridin-4-yl]-methanone]: the inhibition at 1.14 µM is 91%.
On the same count and under the same terms, next, `Cc1n[nH]c2nc(-c3ccc(O)c(F)c3)cc(C(=O)N3CCNC[C@@H]3C)c12` [Example 313, [6-(3-Fluoro-4-hydroxy-phenyl)-3-methyl-1H-pyrazolo[3,4-b]pyridin-4-yl]-((S)-2-methyl-piperazin-1-yl)-methanone]: 99%.
Turning to `Cc1n[nH]c2nc(-c3ccc(O)c(F)c3)cc(C(=O)N3CCNC(C(F)(F)F)C3)c12` (centres unmarked) [Example 314, [6-(3-Fluoro-4-hydroxy-phenyl)-3-methyl-1H-pyrazolo[3,4-b]pyridin-4-yl]-(3-trifluoromethyl-piperazin-1-yl)-methanone], the inhibition at 1.14 µM worked out at 35%.
`Cc1n[nH]c2nc(-c3ccc(O)c(F)c3)cc(C(=O)N3CC(N)C3)c12` [Example 315, (3-Amino-azetidin-1-yl)-[6-(3-fluoro-4-hydroxy-phenyl)-3-methyl-1H-pyrazolo[3,4-b]pyridin-4-yl]-methanone]: the inhibition at 1.14 µM was 62%.
For the compound `Cc1n[nH]c2nc(-c3ccc(O)c(F)c3)cc(C(=O)NCCC3CCCN3C)c12` (centres unmarked) [Example 316, 6-(3-Fluoro-4-hydroxy-phenyl)-3-methyl-1H-pyrazolo[3,4-b]pyridine-4-carboxylic acid [2-(1-methyl-pyrrolidin-2-yl)-ethyl]-amide], the inhibition at 1.14 µM came out at 51%.
Usually % Inhibition stands for the drop in the measured response relative to a control, in per cent. `Cc1n[nH]c2nc(-c3ccc(O)c(F)c3)cc(C(=O)NC3CC4CCC(C3)N4C)c12` [Example 318, 6-(3-Fluoro-4-hydroxy-phenyl)-3-methyl-1H-pyrazolo[3,4-b]pyridine-4-carboxylic acid (3R)-8-methyl-8-aza-bicyclo[3.2.1]oct-3-yl)-amide]: the “% Inhibition” value was 61%.
Regarding `Cc1n[nH]c2nc(-c3ccc(O)c(F)c3)cc(C(=O)NC3CCN(C)CC3)c12` [Example 319, 6-(3-Fluoro-4-hydroxy-phenyl)-3-methyl-1H-pyrazolo[3,4-b]pyridine-4-carboxylic acid (1-methyl-piperidin-4-yl)-amide], the inhibition at 1.14 µM is 59%.
Regarding `Cc1n[nH]c2nc(-c3ccc(O)c(F)c3)cc(C(=O)N3CCNC[C@@H]3C(C)C)c12` [Example 320, [6-(3-Fluoro-4-hydroxy-phenyl)-3-methyl-1H-pyrazolo[3,4-b]pyridin-4-yl]-((S)-2-isopropyl-piperazin-1-yl)-methanone], the inhibition at 1.14 µM was 72%.
For `Cc1n[nH]c2nc(-c3ccc(O)c(F)c3)cc(C(=O)N3CCNC[C@H]3Cc3ccccc3)c12` [Example 321, ((R)-2-Benzyl-piperazin-1-yl)-[6-(3-fluoro-4-hydroxy-phenyl)-3-methyl-1H-pyrazolo[3,4-b]pyridin-4-yl]-methanone], the inhibition at 1.14 µM came to 84%.
Take `Cc1n[nH]c2nc(-c3ccc(O)c(F)c3)cc(C(=O)N3CC[C@@H](C4(N)CC4)C3)c12` [Example 322, [(R)-3-(1-Amino-cyclopropyl)-pyrrolidin-1-yl]-[6-(3-fluoro-4-hydroxy-phenyl)-3-methyl-1H-pyrazolo[3,4-b]pyridin-4-yl]-methanone]: the inhibition at 1.14 µM was 68%.
Turning to `Cc1n[nH]c2nc(-c3ccc(O)c(F)c3)cc(C(=O)N3CCC4(CNCCO4)C3)c12` (centres unmarked) [Example 323, [6-(3-Fluoro-4-hydroxy-phenyl)-3-methyl-1H-pyrazolo[3,4-b]pyridin-4-yl]-(6-oxa-2,9-diaza-spiro[4.5]dec-2-yl)-methanone], the inhibition at 1.14 µM worked out at 42%.
Take `Cc1n[nH]c2nc(-c3ccc(O)c(F)c3)cc(C(=O)N3CCCC4CNCCC43)c12` (centres unmarked) [Example 324, [6-(3-Fluoro-4-hydroxy-phenyl)-3-methyl-1H-pyrazolo[3,4-b]pyridin-4-yl]-(octahydro-[1,6]naphthyridin-1-yl)-methanone]: the inhibition at 1.14 µM stood at 69%.
Consider `Cc1n[nH]c2nc(-c3ccc(O)c(F)c3)cc(C(=O)N3CCNC[C@H]3C(=O)NC(C)(C)C)c12` [Example 325, (S)-1-[6-(3-Fluoro-4-hydroxy-phenyl)-3-methyl-1H-pyrazolo[3,4-b]pyridine-4-carbonyl]-piperazine-2-carboxylic acid tert-butylamide], for which the inhibition at 1.14 µM is 76%.
On to `Cc1n[nH]c2nc(-c3ccc(O)c(F)c3)cc(C(=O)N3CCN[C@@H](C(C)C)C3)c12` [Example 326, [6-(3-Fluoro-4-hydroxy-phenyl)-3-methyl-1H-pyrazolo[3,4-b]pyridin-4-yl]-((S)-3-isopropyl-piperazin-1-yl)-methanone], for which the inhibition at 1.14 µM was 83%.
With `Cc1n[nH]c2nc(-c3ccc(O)c(F)c3)cc(C(=O)N3CCNCC3c3cccnc3)c12` (centres unmarked) [Example 327, [6-(3-Fluoro-4-hydroxy-phenyl)-3-methyl-1H-pyrazolo[3,4-b]pyridin-4-yl]-(2-pyridin-3-yl-piperazin-1-yl)-methanone], the inhibition at 1.14 µM stood at 92%.
On to `COC(=O)[C@H]1CNCCN1C(=O)c1cc(-c2ccc(O)c(F)c2)nc2[nH]nc(C)c12` [Example 328, (R)-1-[6-(3-Fluoro-4-hydroxy-phenyl)-3-methyl-1H-pyrazolo[3,4-b]pyridine-4-carbonyl]-piperazine-2-carboxylic acid methyl ester], for which the inhibition at 1.14 µM is 80%.
The same measure, in the same setting: then `Cc1n[nH]c2nc(-c3ccc(O)c(F)c3)cc(C(=O)N3CCC4(CC3)CNC4)c12` [Example 329, (2,7-Diaza-spiro[3.5]non-7-yl)-[6-(3-fluoro-4-hydroxy-phenyl)-3-methyl-1H-pyrazolo[3,4-b]pyridin-4-yl]-methanone], with 72%.
Take `Cc1n[nH]c2nc(-c3ccc(O)c(F)c3)cc(C(=O)N3CC4(CCNCC4)c4ccccc43)c12` [Example 330, (1,2-Dihydro-5-spiro[3H-indole-3,4′-piperidin]-1-yl)-[6-(3-fluoro-4-hydroxy-phenyl)-3-methyl-1H-pyrazolo[3,4-b]pyridin-4-yl]-methanone]: the inhibition at 1.14 µM came to 45%.
